Source: patent US20240279221A1, “HETEROCYCLIC COMPOUNDS AND METHODS OF USE” (Schrödinger, Inc., priority 2021, published 2024)

What follows are compounds tested against SOS1:KRAS (G12C) interaction (Homo sapiens (Human), UniProt Q07889) (assay: SOS1-KRas(G12C) FRET Assay). Settings: 0.5 nM His10-SOS1 (res. 564-1049), 2.5 nM GST-KRAS (res. 1-169, G12C); read-out: SOS-KRas(G12C) FRET IC50.
Assay type: binding
Protocol: Inhibition of the SOS1:KRAS interaction was measured using purified GST-tagged KRAS (res. 1-169, G12C, purified based on Hillig, et al., Proc Natl Acad Sci USA (2019); 116(7):2551-2560) and recombinant His10-SOS1 (res. 564-1049; purified based on Hillig, et al.). The final assay was performed at 20 uL with 0.5 nM SOS1 protein and 2.5 nM KRAS protein in a buffer of PBS, 0.1% BSA, 5 mM MgCl2, 0.0025% Igepal, 100 mM KF, 5 mM DTT in a white 384 square well OptiPlate (PerkinElmer, Cat. 6007290). A 2× KRAS working solution was prepared in an assay buffer containing 5 nM GST-KRAS G12C and 2 nM anti-GST-Eu(K) (Cisbio, Cat. 61GSTKLA) and pre-incubated for 15 minutes at 25° C. Compounds were serially diluted in 100% DMSO from 2 mM (positive control, compound I-13, PCT Publ. No. WO2018/115380) or 20 mM and then diluted 1:20 in assay buffer before incubation with a solution of SOS1 protein mixed 1:5 with anti-6His-XL665 FRET donor (Cisbio, Cat. 61HISXL) for 15 minutes at 25° C. before addition of 2× KRAS working solution. The final DMSO concentration is 0.5%. Plates were incubated at RT for 2 hrs before the FRET signal was measured using Envision at emission 665 nm and 615 nm. FRET signal was converted to percentage of protein-protein interaction using the following equation:
[formula] • C: signal with compound treatment • P: signal for positive control (DMSO) • N: signal for negative control (no SOS1 added) • IC50 and Hill coefficients were obtained using Graph Pad Prism (Graph Pad software, Inc, USA) with non-linear regression analysis.

Chain of SOS1:KRAS (G12C) interaction (Q07889 564-1049, stated change not applied): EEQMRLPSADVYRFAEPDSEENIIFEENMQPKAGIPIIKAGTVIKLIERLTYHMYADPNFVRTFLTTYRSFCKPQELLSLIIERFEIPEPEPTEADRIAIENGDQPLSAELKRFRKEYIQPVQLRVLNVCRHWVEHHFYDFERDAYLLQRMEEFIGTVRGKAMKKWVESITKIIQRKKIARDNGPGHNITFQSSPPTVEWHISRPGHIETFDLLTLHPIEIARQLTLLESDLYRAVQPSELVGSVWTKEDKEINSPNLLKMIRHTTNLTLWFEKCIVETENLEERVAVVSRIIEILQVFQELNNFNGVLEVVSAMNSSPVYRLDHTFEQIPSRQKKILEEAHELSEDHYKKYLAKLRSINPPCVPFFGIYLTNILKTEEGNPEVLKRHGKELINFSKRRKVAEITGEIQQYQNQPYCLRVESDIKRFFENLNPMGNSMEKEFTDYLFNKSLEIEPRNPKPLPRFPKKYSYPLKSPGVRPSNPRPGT

Row | SMILES | IC50 [nM]
1 | C[C@@H](Nc1nn(C)c(=O)c2cc(=O)n([C@@H]3CC3(C)C)cc12)c1cccc(C(F)F)c1F (single isomer, unassigned) [Example 132] | 152
2 | CC(=O)N1CC[C@](n2cc3c(N[C@H](C)c4cccc(C(F)F)c4F)nn(C)c(=O)c3cc2=O)(C(F)(F)F)C1 (single isomer, unassigned) [Example 100] | 1920
3 | C[C@@H](Nc1nn(C)c(=O)c2cc(=O)n(C3(C(F)F)CC3)cc12)c1cccc2c1OCC2(F)F [Example 160, (R)-4-((1-(3,3-difluoro-2,3-dihydrobenzofuran-7-yl)ethyl)amino)-6-(1-(difluoromethyl)cyclopropyl)-2-methyl-2,6-dihydropyrido[3,4-d]pyridazine-1,7-dione] | 36.7
4 | CC(=O)N1CC[C@](n2cc3c(N[C@H](C)c4cccc5c4OCC5(F)F)nn(C)c(=O)c3cc2=O)(C(F)(F)F)C1 (single isomer, unassigned) [Example 171] | 1740
5 | C[C@H](Nc1nn(C)c(=O)c2cc(=O)n(C3CCOCC3)cc12)c1cccc2sccc12 [Example 63, (S)-4-((1-(benzo[b]thiophen-4-yl)ethyl)amino)-2-methyl-6-(tetrahydro-2H-pyran-4-yl)-2,6-dihydropyrido[3,4-d]pyridazine-1,7-dione] | > 10000
6 | C[C@@H](Nc1nn(C)c(=O)c2cc(=O)n([C@]34C[C@H]3CN(C(=O)C3CC3)C4)cc12)c1cccc(C(F)F)c1F (single isomer, unassigned) [Example 142] | 77.2
7 | C[C@H](Nc1nn(C)c(=O)c2cc(=O)n(C3(C(F)F)CC3)cc12)c1cccc2c1OCCC2(F)F [Example 181, (S)-4-((1-(4,4-difluorochroman-8-yl)ethyl)amino)-6-(1-(difluoromethyl)cyclopropyl)-2-methyl-2,6-dihydropyrido[3,4-d]pyridazine-1,7-dione] | > 10000
8 | C[C@@H](Nc1nn(C)c(=O)c2cc(=O)n([C@@]3(C(F)(F)F)CCOC3)cc12)c1cccc2c1OCC2(F)F (single isomer, unassigned) [Example 168] | 13.5
9 | C[C@@H](Nc1nn(C)c(=O)c2cc(=O)n(C3(C(F)F)CC3)cc12)c1cccc2ccnn12 [Example 116, (R)-6-(1-(difluoromethyl)cyclopropyl)-2-methyl-4-((1-(pyrazolo[1,5-a]pyridin-7-yl)ethyl)amino)-2,6-dihydropyrido[3,4-d]pyridazine-1,7-dione] | > 10000
10 | C[C@@H](Nc1nn(C)c(=O)c2cc(=O)n([C@H]3C[C@@H]3C3CC3)cc12)c1cccc(C(F)F)c1F (single isomer, unassigned) [Example 135] | 70.5
11 | C[C@@H](Nc1nn(C)c(=O)c2cc(=O)n([C@@H]3C[C@H]3C(F)(F)F)cc12)c1cccc(C(F)F)c1F (single isomer, unassigned) [Example 138] | 434
12 | COc1c(=O)n([C@]2(C(F)(F)F)CCOC2)cc2c(N[C@H](C)c3cccc(C(F)F)c3F)nn(C)c(=O)c12 (single isomer, unassigned) [Example 158] | 382
13 | C[C@H](Nc1nn(C)c(=O)c2cc(=O)n(C3(C(F)F)CC3)cc12)c1cccc2cccn12 [Example 113, (S)-6-(1-(difluoromethyl)cyclopropyl)-4-((1-(indolizin-5-yl)ethyl)amino)-2-methyl-2,6-dihydropyrido[3,4-d]pyridazine-1,7-dione] | > 10000
14 | C[C@@H](Nc1nn(C)c(=O)c2cc(=O)n([C@@H]3CC34CCC(F)(F)CC4)cc12)c1cccc(C(F)F)c1F (single isomer, unassigned) [Example 131] | 277
15 | Cn1nc(N[C@H](c2cccc(C(F)(F)F)c2)C(F)F)c2cn(C3CC3)c(=O)cc2c1=O [Example 112, (R)-6-cyclopropyl-4-((2,2-difluoro-1-(3-(trifluoromethyl)phenyl)ethyl)amino)-2-methylpyrido[3,4-d]pyridazine-1,7(2H,6H)-dione] | > 10000
16 | C[C@@H](Nc1nn(C)c(=O)c2cc(=O)n([C@]3(C(F)(F)F)CCN(C)C3)cc12)c1cccc(C(F)F)c1F (single isomer, unassigned) [Example 98] | 989

Row | SMILES | IC50 [nM]
17 | C[C@@H](Nc1nn(C)c(=O)c2cc(=O)n(C3(C)CC(F)(F)C3)cc12)c1cccc(C(F)F)c1F [Example 134, (R)-6-(3,3-difluoro-1-methylcyclobutyl)-4-((1-(3-(difluoromethyl)-2-fluorophenyl)ethyl)amino)-2-methyl-2,6-dihydropyrido[3,4-d]pyridazine-1,7-dione] | 282
18 | C[C@@H](Nc1nn(C)c(=O)c2c(O[C@H]3C[C@H](F)C3)c(=O)n(C3(C(F)F)CC3)cc12)c1cccc(C(F)F)c1F [Example 89, 4-(((R)-1-(3-(difluoromethyl)-2-fluorophenyl)ethyl)amino)-6-(1-(difluoromethyl)cyclopropyl)-8-((1r,3R)-3-fluorocyclobutoxy)-2-methylpyrido[3,4-d]pyridazine-1,7(2H,6H)-dione] | 122
19 | Cc1cc([C@@H](C)Nc2nn(C)c(=O)c3cc(=O)n(C4CC4)cc23)cc(C(F)(F)F)c1 [Example 118, 6-cyclopropyl-2-methyl-4-[[(1R)-1-[3-methyl-5-(trifluoromethyl)phenyl]ethyl]amino]pyrido[3,4-d]pyridazine-1,7-dione] | > 10000
20 | Cc1c([C@@H](C)Nc2nn(C)c(=O)c3cc(=O)n([C@@H]4C[C@H]4c4cncc(F)c4)cc23)cccc1C(F)(F)F (single isomer, unassigned) [Example 92] | 567
21 | CC(=O)N1CC(C(F)F)(n2cc3c(N[C@H](C)c4cccc(C(F)F)c4F)nn(C)c(=O)c3cc2=O)C1 [Example 154, (R)-6-(1-acetyl-3-(difluoromethyl)azetidin-3-yl)-4-((1-(3-(difluoromethyl)-2-fluorophenyl)ethyl)amino)-2-methylpyrido[3,4-d]pyridazine-1,7(2H,6H)-dione] | 18.5
22 | COC(C)(C)C(F)(F)c1cccc([C@@H](C)Nc2nn(C)c(=O)c3cc(=O)n(C4(C(F)F)CC4)cc23)c1F [Example 110, (R)-4-((1-(3-(1,1-difluoro-2-methoxy-2-methylpropyl)-2-fluorophenyl)ethyl)amino)-6-(1-(difluoromethyl)cyclopropyl)-2-methyl-2,6-dihydropyrido[3,4-d]pyridazine-1,7-dione] | 48.1
23 | C[C@@H](Nc1nn(C)c(=O)c2cc(=O)n([C@H]3CC34CCC(F)(F)CC4)cc12)c1cccc(C(F)F)c1F (single isomer, unassigned) [Example 130] | 82.6
24 | C[C@@H](Nc1nn(C)c(=O)c2cc(=O)n([C@H]3CC34CC4)cc12)c1cccc(C(F)F)c1F (single isomer, unassigned) [Example 129] | 112
25 | C[C@@H](Nc1nn(C)c(=O)c2cc(=O)n(C3(C)CN(C(=O)C4(F)CC4)C3)cc12)c1cccc(C(F)F)c1F [Example 153, (R)-4-((1-(3-(difluoromethyl)-2-fluorophenyl)ethyl)amino)-6-(1-(1-fluorocyclopropane-1-carbonyl)-3-methylazetidin-3-yl)-2-methyl-2,6-dihydropyrido[3,4-d]pyridazine-1,7-dione] | 86.9
26 | C[C@@H](Nc1nn(C)c(=O)c2cc(=O)n([C@]3(C(F)(F)F)CCOC3)cc12)c1cccc2c1OCC2(F)F (single isomer, unassigned) [Example 169] | 262
27 | COc1c(=O)n(C2CCOCC2)cc2c(N[C@H](C)c3cccc(C(C)(F)F)c3F)nn(C)c(=O)c12 [Example 37, (R)-4-((1-(3-(1,1-difluoroethyl)-2-fluorophenyl)ethyl)amino)-8-methoxy-2-methyl-6-(tetrahydro-2H-pyran-4-yl)-2,6-dihydropyrido[3,4-d]pyridazine-1,7-dione] | 30.4
28 | COc1c(=O)n([C@@]2(C(F)(F)F)CCOC2)cc2c(N[C@H](C)c3cccc(C(F)F)c3F)nn(C)c(=O)c12 (single isomer, unassigned) [Example 157] | 24.2
29 | Cc1c([C@@H](C)Nc2nn(C)c(=O)c3cc(=O)n([C@H]4C[C@@H]4c4cncc(F)c4)cc23)cccc1C(F)(F)F (single isomer, unassigned) [Example 91] | 97.4
30 | C[C@@H](Nc1nn(C)c(=O)c2cc(=O)n(C3CC3)cc12)c1ccc2c(c1)CCCC2 [Example 101, (R)-6-cyclopropyl-2-methyl-4-((1-(5,6,7,8-tetrahydronaphthalen-2-yl)ethyl)amino)-2,6-dihydropyrido[3,4-d]pyridazine-1,7-dione] | > 100000
31 | CC(=O)N1CC[C@@](n2cc3c(N[C@H](C)c4cccc(C(F)F)c4F)nn(C)c(=O)c3cc2=O)(C(F)(F)F)C1 (single isomer, unassigned) [Example 99] | 9.03
32 | Cc1cc([C@H](C)Nc2nn(C)c(=O)c3cc(=O)n(C4CC4)cc23)cc(C(F)(F)F)c1 [Example 117, 6-cyclopropyl-2-methyl-4-[[(1S)-1-[3-methyl-5-(trifluoromethyl)phenyl]ethyl]amino]pyrido[3,4-d]pyridazine-1,7-dione] | 568
